The values that follow come from patent US8580780B2, “6 substituted 2, 3,4,5 tetrahydro-1H-benzo[d]azepines as 5-HT2C receptor agonist” (Eli Lilly and Company, priority 2004, dated 2013).

The nature of one data set: Nestlet shredding. In kind it is in vivo, male NIH Swiss mice. The following applies: mice, 30 min. From the text:
Mice naturally will construct nests of material available in their living environment. Since this behavior is obsessive in nature, it has been used to model OCD (Xia Li, Denise Morrow and Jeffrey M. Witkin, “Decreases in nestlet shredding of mice by serotonin uptake inhibitors: comparison with marble burying”, Psychopharmacology, submitted Jul. 14, 2003). House experimentally-naïve male, NIH Swiss mice (Harlan Sprague-Dawley, Indianapolis, Ind.) weighing between 28-35g in groups of 12 for at least three days prior to testing in a vivarium with a 12 h light/dark cycle. Conduct experiments during the light cycle in an experimental room with normal overhead fluorescent lighting. Dose mice with vehicle or test compound and after a specified pretreatment interval (generally 30 min.), place the mice individually in a 17×28×12 cm high plastic tub with about 5 mm sawdust shavings on the floor along with a pre-weighed multi-ply gauze pad (51 mm square). After 30 min., weigh the remainder of the game pad not removed by the mouse. Determine the weight of the gauze used for nestlet construction by subtraction. Compare the results for test compound treated mice to the results for vehicle control treated mice with Dunnett's test.
Clinically effective OCD treatment standard compounds suppress nestlet shredding at doses that are devoid of motor-impairing effects as measured by the rotorod test. […]

Data set [1] in a line: Schedule-induced polydipsia. In kind it is in vivo, Wistar rats. An excerpt:
Food-deprived rats exposed to intermittent presentations of food will drink amounts of water that are far in excess of their normal daily intake and in excess of their intake when given all of their food at one time (Falk J L. “Production of polydipsia in normal rats by an intermittent food schedule”, Science 133: 195-196, (1961)). This excessive behavior is persistent and has been used to model OCD.
Maintain Wistar rats on a food restricted diet (to maintain 85% free feeding weight), but with free access to water. Train the rats in a behavioral testing chamber to press a lever to receive a food pellet under a fixed interval schedule, such that the rats are rewarded with a 45 mg food pellet the first time they press a lever after a 120 second interval has elapsed. The fixed interval is then reset to 120 seconds and the process repeated. Thus, during a 90 min. test session, the rats can earn a maximum of 45 pellets. The behavioral chamber is also equipped with a water bottle that is weighed before and after the session to determine the amount of water consumed.
Administer test compounds on Tuesdays and Fridays. […] Compare the rates of lever pressing and water consumption for each animal's performance during sessions after test compound treatment with that animal's performance during control sessions, expressed as a percent of the control rate. […]

For data set [2] the following is noted: mouse, in vivo; cited from earlier work.
The conditions of data set [3]: rat, in vivo; cited from earlier work.
A further data set in a line: Marble burying assay. In kind it is in vivo, male NIH Swiss mice. The note with it: mice, 30 min session, with rotorod check. An excerpt:
Marble burying in mice has been used to model anxiety disorders including obsessive-compulsive disorders (OCD) due to ethological study of the behavior (e.g. Gyertyan I. “Analysis of the marble burying response: Marbles serve to measure digging rather than evoke burying”, Behavioural Pharmacology 6: 24-31, (1995)) and due to the pharmacological effects of clinical standards (c.f., Njung'E K. Handley S L. “Evaluation of marble-burying behavior as a model of anxiety”, Pharmacology, Biochemistry & Behavior. 38: 63-67, (1991)); Borsini F., Podhorna J., and Marazziti, D. “Do animal models of anxiety predict anxiolytic effects of antidepressants?”, Psychopharmacology 163: 121-141, (2002)).
House experimentally-naïve male, NIH Swiss mice (Harlan Sprague-Dawley, Indianapolis, Ind.) weighing between 28-35g in groups of 12 for at least three days prior to testing in a vivarium with 12 h light and dark cycles. Conduct experiments during the light cycle in a dimly lit experimental testing room. Dose mice with vehicle or test compound and, after a specified pretreatment interval (generally 30 min.), place each mouse individually on a rotorod (Ugo Basile 7650) operating at a speed of 6 revolutions/min. and observe for falling. […]
Clinically effective standard compounds suppress marble burying at doses that are devoid of motor-impairing effects as measured on the rotorod. […]
In general terms: The rotarod test checks motor coordination on a turning rod.

For the compound `C[C@H](N)Cc1ccccc1` [d-amphetamine], the nestlet shredding result in the data set “Nestlet shredding” was “decreases nestlet shredding only at doses that produce motoric side effects”. Further, the “Effect on polydipsia with co-administration of 5-HT2C antagonist” value in data set [1] (rat, in vivo) was “not prevented by the 5HT2C receptor antagonist”. In addition, the “schedule-induced polydipsia (excessive drinking)” value in data set [1] (rats, 90 min session) is “decreases excessive drinking only at behaviorally stimulating doses”. Regarding `CNCCC(Oc1ccc(C(F)(F)F)cc1)c1ccccc1` (centres unmarked) [fluoxetine], the “marble burying (clinical standards, literature)” value in data set [2] was “decrease burying”. In addition, the “schedule-induced polydipsia (clinically effective OCD standards)” value in data set [3] was “suppress schedule-induced polydipsia without producing notable changes in motor patterns, food intake, or behavior the following day”. As usually defined, the melting point is the temperature of the solid-liquid transition. Turning to `Clc1ccc2c(c1SCc1ccccn1)CCNCC2.O=C(O)CCC(=O)O`, the melting point was 159 to 160 °C. With `CN(C)CCCN1c2ccccc2CCc2ccc(Cl)cc21` [chlomipramine], in data set [3], the “schedule-induced polydipsia (clinically effective OCD standards)” value is recorded as “suppress schedule-induced polydipsia without producing notable changes in motor patterns, food intake, or behavior the following day”. With `CN(C)CCCN1c2ccccc2Sc2ccc(Cl)cc21` [chlorpromazine], in “Marble burying assay”, the marble burying behavior entry is recorded as “decrease marble burying only at doses that also disrupt rotorod performance”.
